Assay results as given in patent US7531312B2, “Simplified biological evaluation method of natural and artificial chemicals by using DNA injury index and apparatus therefor” (TAS Project Co., Ltd., priority 2000, dated 2009).
Like-named read-outs stand apart in the source and are kept apart here.

Assays:
[1] = tested on: 2′-deoxyguanosine (dG); experiment: 8OHdG produced from dG with test substance and coexisting bisphenol A, standing or UV (Example 9); type: biochemical; conditions: for effect on 8OHdG with BPA and UV light irradiation: Example 9
Protocol: 170 μl portions of ultrapure water and predetermined concentrations of vitamin C (VC), vitamin E (VE), and glucose (Glu) as test substance were added to each well of two […] plastic plates and, as additional solution, 20 μl of ultrapure water or predetermined concentration of bisphenol A (BPA) were injected into each well.

[2] = tested on: 2′-deoxyguanosine (dG); experiment: 8OHdG produced from added dG, standing at room temperature or UV irradiation (Examples 1-7); conditions: for concentration at which oxidation injury activity due to UV light is elevated (harmfulness increased): Example 1, 90 minutes UV; for evaluation in words: oxidation induction or antioxidant ability toward dG: conclusions of Examples 2-7;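 as to all read-outs here: Cell-free test: dG in test solution, held at room temperature or exposed to 254 nm UV, then 8OHdG quantified by HPLC with electrochemical detection, compared against dG in ultrapure water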
Protocol: Separately, the amount of 8OHdG after an ultrapure water solution of dG is left to stand under the same conditions as above for a predetermined time is measured (this value is defined as B). If A is greater than B, the test substance is evaluated to have oxidation induction ability and conversely if A is smaller than B, the test substance is evaluated to have antioxidant ability. In either case, it is judged that the greater the difference is, the greater degree of oxidation induction ability or antioxidant capability the test substance has.
Then, 20 μl of 200 μg/ml dG (dissolved in ultrapure water) was added to each well and one of the plates was left to stand as it was at room temperature for 90 minutes and the other plate was irradiated with UV light (254 nm, 860 μW/cm^2) for 90 minutes in a UV light irradiation box. […] Subsequently, nucleosides in the both were quantified by use of the UV light absorption analyzer connected to the HPLC and the electrochemical detector.
Solutions of predetermined concentrations of vitamin C (VC), vitamin E (VE), catechin (Cate) and tannic acid (Tan) were prepared and 180 μl portions were injected into each well of two 99-well plastic plates. Then, 20 μl of 200 μg/ml dG (dissolved in ultrapure water) was added to each well and one of the plates was left to stand as it was at room temperature for 90 minutes and the other plate was irradiated with UV light (254 nm, 860 μW/cm^2) for 90 minutes in a UV light irradiation box.
Then, 20 μl of 200 μg/ml dG (dissolved in ultrapure water) was added to each well and one of the plates was left to stand as it was at room temperature for 90 minutes and another plate was left to stand similarly at room temperature for 24 hours. The remaining three plates were irradiated with UV light (254 nm, 860 μW/cm^2) for 60 minutes, 90 minutes and 120 minutes, respectively, in a UV light irradiation box.
Solutions of predetermined concentrations of glucose (Glu), raffinose (Raffi) and sucrose (Suc) were prepared and 180 μl portions thereof were injected into each well of four 99-well plastic plates. Then, 20 μl of 200 μg/ml dG (dissolved in ultrapure water) was added to each well and one of the plates was left to stand as it was at room temperature for 90 minutes. The remaining three plates were irradiated with UV light (254 nm, 860 μW/cm^2) for 60 minutes, 90 minutes and 120 minutes, respectively, in a UV light irradiation box.
Then, 20 μl of 200 μg/ml dG (dissolved in ultrapure water) was added to each well and one of the plates was left to stand as it was at room temperature for 90 minutes and the other plate was irradiated with UV light (254 nm, 860 μW/cm^2) for 90 minutes in a UV light irradiation box.
Solutions of various concentrations of uric acid (dissolving fluid: distilled water+0.025% FBS) were prepared and 180 μl portions thereof were injected into each well of two 99-well plastic plates. Then, 20 μl of 200 μg/ml dG (dissolved in ultrapure water) was added to each well and one of the plates was left to stand as it was at room temperature for 90 minutes and the other plate was irradiated with UV light (254 nm, 860 μW/cm^2) for 90 minutes in a UV light irradiation box.

[3] = cited from earlier work
[4] = tested on: 2′-deoxyguanosine (dG); experiment: 8OHdG produced from dG in presence of potassium bromate as active oxygen generator (Example 8); type: biochemical; conditions: with KBrO3, ultrapure water 2.699
[5] = tested on: 2′-deoxyguanosine (dG); conditions: KBrO3 30 minutes; for dG: pure water ctrl 1.067; for 8OHdG/dG × 10^−3: pure water ctrl 3.542; for 8OHdG × 10^−3: pure water ctrl 3.779; for Relative initial magnification: pure water ctrl 13.47
[6] = 0.0005 ppm, Table 1, ultrapure water 0.529
[7] = 0.005 ppm, Table 1, ultrapure water 0.267
[8] = 0.005 ppm, Table 1, ultrapure water 0.529
[9] = 0.05 ppm, Table 1, ultrapure water 0.529
[10] = 0.5 ppm, Table 1, ultrapure water 0.267
[11] = 0.5 ppm, Table 1, ultrapure water 0.529
[12] = 5 ppm, Table 1, ultrapure water 0.267
[13] = 5 ppm, Table 1, ultrapure water 0.529
[14] = 5%, Table 3, ultrapure water 0.382
[15] = 20%, Table 3, ultrapure water 0.382
[16] = test substance 0.001%, additional solution ultrapure water

With `CC(C)(c1ccc(O)cc1)c1ccc(O)cc1` [BPA, bisphenol A] the “8OHdG concentration, 90 Minutes' standing” value ([1]; BPA 0.5 ppm added to ultrapure water, ultrapure water 0.21) was 0.19 ng/mL, the “8OHdG concentration, 90 Minutes' UV irradiation” value ([1]; BPA 0.5 ppm added to ultrapure water, ultrapure water 0.64) was 2.09 ng/mL and the “8OHdG concentration, 90 Minutes' standing” value ([1]; BPA 5 ppm added to ultrapure water, ultrapure water 0.21) was 0.31 ng/mL. The “8OHdG concentration, 90 Minutes' UV irradiation” value ([1]; BPA 5 ppm added to ultrapure water, ultrapure water 0.64) was 6.19 ng/mL, the “8OHdG concentration, 90 Minutes' standing” value ([1]; BPA 50 ppm added to ultrapure water, ultrapure water 0.21) was 0.22 ng/mL and the “8OHdG concentration, 90 Minutes' UV irradiation” value ([1]; BPA 50 ppm added to ultrapure water, ultrapure water 0.64) was 11.58 ng/mL. The “effect on 8OHdG with BPA and UV light irradiation” value [1] was “increases depending on concentration”, the “8OHdG concentration, 90 Minutes' UV irradiation” value [2, 6] was 0.689 ng/mL and the “8OHdG concentration, 90 Minutes' standing” value [2, 7] was 0.315 ng/mL. The “8OHdG concentration, 90 Minutes' UV irradiation” value [2, 8] was 0.794 ng/mL, the “8OHdG concentration, 90 Minutes' UV irradiation” value [2, 9] was 0.614 ng/mL and the “8OHdG concentration, 90 Minutes' standing” value [2, 10] was 0.231 ng/mL. The “8OHdG concentration, 90 Minutes' UV irradiation” value [2, 11] was 1.736 ng/mL, the “8OHdG concentration, 90 Minutes' standing” value [2, 12] was 0.192 ng/mL and the “8OHdG concentration, 90 Minutes' UV irradiation” value [2, 13] was 7.142 ng/mL. The “concentration at which oxidation injury activity due to UV light is elevated (harmfulness increased)” value [2] was at least 0.5 ppm and the Acceptable uptake amount ([3]; common in every country) was 0.05 mg/kg/day.
For `O=C([O-])CN(CCN(CC(=O)[O-])CC(=O)[O-])CC(=O)[O-].[Na+].[Na+].[Na+].[Na+]` [EDTA, sodium ethylenediaminetetraacetate], the “8OHdG concentration, 30 Minutes' standing” value ([4]; 1 mM) was 0.784 ng/mL, the dG ([5]; 1 mM) was 0.997 VS and the “8OHdG/dG × 10^−3” value ([5]; 1 mM) was 1.101 × 10^−3. The “8OHdG × 10^−3” value ([5]; 1 mM) was 1.098 mVs and the Relative initial magnification ([5]; 1 mM) was 4.19 times.
With `OCC(O)CO` [Gly, glycerol] the “8OHdG concentration, 30 Minutes' standing” value ([4]; 10%) was 1.123 ng/mL, the dG ([5]; 10%) was 1.044 VS and the “8OHdG/dG × 10^−3” value ([5]; 10%) was 1.506 × 10^−3. For the same compound, the “8OHdG × 10^−3” value ([5]; 10%) was 1.572 mVs.
In the case of `CO` [Meth, methanol], the “8OHdG concentration, UV irradiation 60 minutes” value ([2]; 5%, Table 3, ultrapure water 0.231) is reported as 0.181 ng/mL, the “8OHdG concentration, Standing 24 hours” value [2, 14] is reported as 0.336 ng/mL and the “8OHdG concentration, UV irradiation 90 minutes” value [2, 14] is reported as 0.209 ng/mL. The “8OHdG concentration, UV irradiation 120 minutes” value ([2]; 5%, Table 3, ultrapure water 0.645) was 0.332 ng/mL, the “8OHdG concentration, UV irradiation 60 minutes” value ([2]; 20%, Table 3, ultrapure water 0.231) was 0.324 ng/mL and the “8OHdG concentration, Standing 24 hours” value [2, 15] was 0.274 ng/mL. The “8OHdG concentration, UV irradiation 90 minutes” value [2, 15] was 0.395 ng/mL, the “8OHdG concentration, UV irradiation 120 minutes” value ([2]; 20%, Table 3, ultrapure water 0.645) was 0.518 ng/mL and the “evaluation in words: oxidation induction or antioxidant ability toward dG” value (from here on “evaluation in words”) [2] was “potent antioxidant ability”. For the same compound, the “8OHdG concentration, 30 Minutes' standing” value ([4]; 1%) was 2.059 ng/mL, the “8OHdG concentration, 30 Minutes' standing” value ([4]; 2.5%) was 1.685 ng/mL and the dG ([5]; 1%) was 1.04 VS. The “8OHdG/dG × 10^−3” value ([5]; 1%) was 2.771 × 10^−3, the dG ([5]; 5%) was 1.054 VS and the “8OHdG/dG × 10^−3” value ([5]; 5%) was 2.238 × 10^−3. The “8OHdG × 10^−3” value ([5]; 5%) was 2.359 mVs.
With `Oc1c(Cl)c(Cl)c(Cl)c(Cl)c1Cl` [PCP, pentachlorophenol] the “8OHdG concentration, 90 Minutes' standing” value ([2]; 0.0005 ppm, Table 1, ultrapure water 0.267) was 0.260 ng/mL, the “8OHdG concentration, 90 Minutes' UV irradiation” value [2, 6] was 0.585 ng/mL and the “8OHdG concentration, 90 Minutes' standing” value [2, 7] was 0.236 ng/mL. For the same compound, the “8OHdG concentration, 90 Minutes' UV irradiation” value [2, 8] was 0.451 ng/mL, the “8OHdG concentration, 90 Minutes' standing” value ([2]; 0.05 ppm, Table 1, ultrapure water 0.267) was 0.285 ng/mL and the “8OHdG concentration, 90 Minutes' UV irradiation” value [2, 9] was 0.431 ng/mL. The “8OHdG concentration, 90 Minutes' standing” value [2, 10] was 0.282 ng/mL, the “8OHdG concentration, 90 Minutes' UV irradiation” value [2, 11] was 0.396 ng/mL and the “8OHdG concentration, 90 Minutes' standing” value [2, 12] was 0.340 ng/mL. The “8OHdG concentration, 90 Minutes' UV irradiation” value [2, 13] was 5.730 ng/mL, the “concentration at which oxidation injury activity due to UV light is elevated (harmfulness increased)” value [2] was 5 ppm and the safety concentration ([3]; reported) was 5 mg/kg.
In the case of `OC[C@H]1O[C@H](OC[C@H]2O[C@H](O[C@]3(CO)O[C@H](CO)[C@@H](O)[C@@H]3O)[C@H](O)[C@@H](O)[C@@H]2O)[C@H](O)[C@@H](O)[C@H]1O` [Raffi, raffinose], the “8OHdG concentration, 90 Minutes' standing” value ([2]; 0.1 μg/ml, Table 4, ultrapure water 0.195) is reported as 0.205 ng/mL, the “8OHdG concentration, UV irradiation 60 minutes” value ([2]; 0.1 μg/ml, Table 4, ultrapure water 0.392) is reported as 0.375 ng/mL and the “8OHdG concentration, UV irradiation 90 minutes” value ([2]; 0.1 μg/ml, Table 4, ultrapure water 0.901) is reported as 0.689 ng/mL. The “8OHdG concentration, UV irradiation 120 minutes” value ([2]; 0.1 μg/ml, Table 4, ultrapure water 1.183) was 1.127 ng/mL, the “8OHdG concentration, 90 Minutes' standing” value ([2]; 1 μg/ml, Table 4, ultrapure water 0.195) was 0.185 ng/mL and the “8OHdG concentration, UV irradiation 60 minutes” value ([2]; 1 μg/ml, Table 4, ultrapure water 0.392) was 0.304 ng/mL. For the same compound, the “8OHdG concentration, UV irradiation 90 minutes” value ([2]; 1 μg/ml, Table 4, ultrapure water 0.901) was 0.854 ng/mL, the “8OHdG concentration, UV irradiation 120 minutes” value ([2]; 1 μg/ml, Table 4, ultrapure water 1.183) was 1.049 ng/mL and the “8OHdG concentration, 90 Minutes' standing” value ([2]; 10 μg/ml, Table 4, ultrapure water 0.195) was 0.405 ng/mL. For the same compound, the “8OHdG concentration, UV irradiation 60 minutes” value ([2]; 10 μg/ml, Table 4, ultrapure water 0.392) was 0.281 ng/mL, the “8OHdG concentration, UV irradiation 90 minutes” value ([2]; 10 μg/ml, Table 4, ultrapure water 0.901) was 0.626 ng/mL and the “8OHdG concentration, UV irradiation 120 minutes” value ([2]; 10 μg/ml, Table 4, ultrapure water 1.183) was 1.314 ng/mL. For the same compound, the “8OHdG concentration, 90 Minutes' standing” value ([2]; 100 μg/ml, Table 4, ultrapure water 0.195) was 0.455 ng/mL, the “8OHdG concentration, UV irradiation 60 minutes” value ([2]; 100 μg/ml, Table 4, ultrapure water 0.392) was 0.158 ng/mL and the “8OHdG concentration, UV irradiation 90 minutes” value ([2]; 100 μg/ml, Table 4, ultrapure water 0.901) was 0.370 ng/mL. The “8OHdG concentration, UV irradiation 120 minutes” value ([2]; 100 μg/ml, Table 4, ultrapure water 1.183) was 0.503 ng/mL, the “8OHdG concentration, 90 Minutes' standing” value ([2]; 1 mg/ml, Table 4, ultrapure water 0.195) was 0.340 ng/mL and the “8OHdG concentration, UV irradiation 60 minutes” value ([2]; 1 mg/ml, Table 4, ultrapure water 0.392) was 0.115 ng/mL. The “8OHdG concentration, UV irradiation 90 minutes” value ([2]; 1 mg/ml, Table 4, ultrapure water 0.901) was 0.176 ng/mL, the “8OHdG concentration, UV irradiation 120 minutes” value ([2]; 1 mg/ml, Table 4, ultrapure water 1.183) was 0.240 ng/mL and the “concentration at which antioxidant ability is effective” value ([2]; Example 4) was at least 10 µg/mL. The “evaluation in words” value [2] was “Glu>Raffi≈Suc”, the dG ([5]; 1 mg/ml) was 0.926 VS and the “8OHdG/dG × 10^−3” value ([5]; 1 mg/ml) was 2.513 × 10^−3. For the same compound, the “8OHdG × 10^−3” value ([5]; 1 mg/ml) was 2.327 mVs, the Relative initial magnification ([5]; 1 mg/ml) was 9.55 times and the dG ([5]; 10 mg/ml) was 1.045 VS. The “8OHdG/dG × 10^−3” value ([5]; 10 mg/ml) was 3.137 × 10^−3, the “8OHdG × 10^−3” value ([5]; 10 mg/ml) was 3.278 mVs and the Relative initial magnification ([5]; 10 mg/ml) was 11.93 times.
In the case of `Cc1c(C)c2c(c(C)c1O)CC[C@@](C)(CCC[C@H](C)CCC[C@H](C)CCCC(C)C)O2` [VE, vitamin E], the “effect on 8OHdG with BPA and UV light irradiation” value [1] is reported as “significantly inhibit the increase in 8OHdG”, the “8OHdG concentration, 90 Minutes' UV irradiation” value ([1]; test substance 0.00001%, additional solution BPA (50 ppm), BPA alone 11.58) is reported as 15.43 ng/mL and the “8OHdG concentration, 90 Minutes' UV irradiation” value ([1]; test substance 0.0001%, additional solution BPA (50 ppm), BPA alone 11.58) is reported as 8.27 ng/mL. The “8OHdG concentration, 90 Minutes' standing” value ([1]; test substance 0.001%, additional solution BPA (50 ppm), BPA alone 0.22) was 0.29 ng/mL, the “8OHdG concentration, 90 Minutes' UV irradiation” value ([1]; test substance 0.001%, additional solution BPA (50 ppm), BPA alone 11.58) was 3.79 ng/mL and the “8OHdG concentration, 90 Minutes' UV irradiation” value [1, 16] was 0.28 ng/mL. The “8OHdG concentration, 90 Minutes' standing” value [1, 16] was 0.18 ng/mL, the “8OHdG concentration, 90 Minutes' standing” value ([2]; 0.0005%, Table 2, distilled water 0.15) was 0.49 ng/mL and the “8OHdG concentration, 90 Minutes' UV irradiation” value ([2]; 0.0005%, Table 2, distilled water 1.23) was 0.30 ng/mL. For the same compound, the “8OHdG concentration, 90 Minutes' standing” value ([2]; 0.005%, Table 2, distilled water 0.15) was 0.45 ng/mL, the “8OHdG concentration, 90 Minutes' UV irradiation” value ([2]; 0.005%, Table 2, distilled water 1.23) was 0.18 ng/mL and the “8OHdG concentration, 90 Minutes' standing” value ([2]; 0.05%, Table 2, distilled water 0.15) was 0.44 ng/mL. The “8OHdG concentration, 90 Minutes' UV irradiation” value ([2]; 0.05%, Table 2, distilled water 1.23) was 0.42 ng/mL and the “evaluation in words” value [2] was “very stable antioxidant”.
